In brackets after ≈: the same amount, converted by molar mass. Activity calls are given as the source filed them. No cut-off for these calls is given here.
What was measured:
[1] = In-vitro cytotoxic activity against human HUVEC cells incubated for 72 hrs by CCK8 assay; assay type: toxicity, cell-based
[2] = system: A549; assay: In-vitro antitumor activity against human A549 cells incubated for 72 hrs by CCK8 assay; assay type: functional, cell-based; settings: A549, 72 h
[3] = system: MCF7; assay: In-vitro antitumor activity against human MCF7 cells incubated for 72 hrs by CCK8 assay; assay type: functional, cell-based; settings: MCF7, 72 h
[4] = system: HCT-116; assay: Inhibition of cell migration of human HCT-116 cells at 0.25 uM incubated for 24 hrs by wound healing assay; assay type: functional, cell-based
[5] = system: HCT-116; assay: In-vitro antitumor activity against human HCT-116 cells incubated for 72 hrs by CCK8 assay; assay type: functional, cell-based; settings: HCT-116, 72 h
[6] = system: HCT-116; assay: Induction of apoptosis in human HCT-116 cells at 0.1 uM incubated for 48 hrs by Annexin V/PI staining based flow cytometry (reference value: 3.86%); assay type: functional
[7] = system: HCT-116; assay: Induction of apoptosis in human HCT-116 cells assessed as reduction in cytochrome C protein expression at 1.5 uM incubated for 24 hrs by Western blot analysis; assay type: functional, cell-based
[8] = system: HCT-116; assay: Induction of apoptosis in human HCT-116 cells at 0.15 uM incubated for 48 hrs by Annexin V/PI staining based flow cytometry (reference value: 3.86%); assay type: functional
[9] = system: HCT-116; assay: Induction of apoptosis in human HCT-116 cells assessed as decrease in Bcl-2 protein expression at 0.05 to 1.5 uM incubated for 24 hrs by Western blot analysis; assay type: functional, cell-based; settings: dose 0.05-1.5 µM
[10] = system: HCT-116; assay: Induction of cell cycle arrest in human HCT-116 cells assessed as accumulation at S phase at 0.05 uM incubated for 48 hrs by flow cytometry (reference value: 34.21%); assay type: functional
[11] = system: HCT-116; assay: Induction of apoptosis in human HCT-116 cells at 0.05 to 0.25 uM incubated for 48 hrs by Annexin V/PI staining based flow cytometry; assay type: functional, cell-based; settings: dose 0.05-0.25 µM, DDE = dose-dependent effect
[12] = system: HCT-116; assay: Induction of apoptosis in human HCT-116 cells assessed as reduction in p53 protein expression at 1.5 uM incubated for 24 hrs by Western blot analysis; assay type: functional, cell-based
[13] = system: HCT-116; assay: Induction of apoptosis in human HCT-116 cells at 0.05 uM incubated for 48 hrs by Annexin V/PI staining based flow cytometry (reference value: 3.86%); assay type: functional
[14] = system: HCT-116; assay: Induction of apoptosis in human HCT-116 cells assessed as increase in Bax protein expression at 0.05 to 1.5 uM incubated for 24 hrs by Western blot analysis; assay type: functional, cell-based; settings: dose 0.05-1.5 µM
[15] = system: HCT-116; assay: Induction of apoptosis in human HCT-116 cells assessed as increase in cytochrome C protein expression at 0.05 to 1.5 uM incubated for 24 hrs by Western blot analysis; assay type: functional, cell-based; settings: dose 0.05-1.5 µM
[16] = system: HCT-116; assay: Induction of cell cycle arrest in human HCT-116 cells assessed as accumulation at G1 phase at 0.01 uM incubated for 48 hrs by flow cytometry (reference value: 33.16%); assay type: functional
[17] = system: HCT-116; assay: Induction of cell cycle arrest in human HCT-116 cells assessed as accumulation at G1 phase at 0.25 uM incubated for 48 hrs by flow cytometry (reference value: 33.16%); assay type: functional
[18] = system: HCT-116; assay: Inhibition of cell colony formation of human HCT-116 cells at 0.025 to 0.5 uM by clonogenicity assay; assay type: functional, cell-based; settings: dose 0.025-0.5 µM
[19] = system: HCT-116; assay: Inhibition of cell migration of human HCT-116 cells at 0.01 to 0.15 uM incubated for 24 hrs by wound healing assay; assay type: functional, cell-based; settings: dose 0.01-0.15 µM
[20] = system: HCT-116; assay: Induction of cell cycle arrest in human HCT-116 cells assessed as accumulation at S phase at 0.25 uM incubated for 48 hrs by flow cytometry (reference value: 34.21%); assay type: functional
[21] = system: HCT-116; assay: Induction of cell cycle arrest in human HCT-116 cells assessed as accumulation at G2/M phase at 0.01 uM incubated for 48 hrs by flow cytometry (reference value: 32.63%); assay type: functional
[22] = system: HCT-116; assay: Induction of cell cycle arrest in human HCT-116 cells assessed as accumulation at G2/M phase at 0.05 uM incubated for 48 hrs by flow cytometry (reference value: 32.63%); assay type: functional
[23] = system: HCT-116; assay: Induction of cell cycle arrest in human HCT-116 cells assessed as accumulation at S phase at 0.01 uM incubated for 48 hrs by flow cytometry (reference value: 34.21%); assay type: functional
[24] = system: HCT-116; assay: Induction of apoptosis in human HCT-116 cells assessed as increase in p53 protein expression at 0.05 to 1.5 uM incubated for 24 hrs by Western blot analysis; assay type: functional, cell-based; settings: dose 0.05-1.5 µM
[25] = system: HCT-116; assay: Induction of apoptosis in human HCT-116 cells at 0.25 uM incubated for 48 hrs by Annexin V/PI staining based flow cytometry (reference value: 3.86%); assay type: functional
[26] = system: HCT-116; assay: Induction of cell cycle arrest in human HCT-116 cells assessed as accumulation at G2/M phase at 0.25 uM incubated for 48 hrs by flow cytometry (reference value: 32.63%); assay type: functional
[27] = system: HCT-116; assay: Induction of cell cycle arrest in human HCT-116 cells assessed as accumulation at G1 phase at 0.05 uM incubated for 48 hrs by flow cytometry (reference value: 33.16%); assay type: functional
[28] = system: HCT-116; assay: Induction of cell cycle arrest in human HCT-116 cells assessed as increase in Cyclin B1 expression at 0.05 to 1.5 uM incubated for 24 hrs by Western blot analysis; assay type: functional, cell-based; settings: dose 0.05-1.5 µM
[29] = system: HCT-116; assay: Inhibition of cell proliferation of human HCT-116 cells at 0.01 to 10 uM incubated for 48 hrs by RTCA assay; assay type: functional; settings: dose 0.01-10 µM
[30] = system: HCT-116; assay: Induction of cell cycle arrest in human HCT-116 cells assessed as reduction in Cdc25c expression at 0.05 to 1.5 uM incubated for 24 hrs by Western blot analysis; assay type: functional, cell-based; settings: dose 0.05-1.5 µM

Q: With `CN1c2ccc(F)cc2C(=O)N2CCc3c([nH]c4ccc(O)cc34)C21` (configuration not stated) as the compound, how does the IC50 at 72 h [1] read?
A: The IC50 at 72 h was 260 nM.

Q: And the IC50 [2]?
A: Its IC50 is 460 nM.

Q: And the IC50 [3]?
A: Its IC50 is 44 nM.

Q: What about the inhibition [4] of the same compound?
A: Its inhibition is “Active”.

Q: And the IC50 [5]?
A: The IC50 was 73 nM.

Q: For `CN1c2ccc(F)cc2C(=O)N2CCc3c([nH]c4ccc(OC(=O)CCC(=O)Oc5ccc6[nH]c7c(c6c5)CCN5C(=O)c6cc(F)ccc6N(C)C75)cc34)C21` (configuration not stated), which IC50 at 72 h [1] is on record?
A: Its IC50 at 72 h is 210 nM.

Q: What about the IC50 [2] of the same compound?
A: The IC50 was 680 nM.

Q: What about the IC50 [3] of the same compound?
A: The IC50 was 890 nM.

Q: And the IC50 [5]?
A: The IC50 was 32 nM.

Q: What does the source list for `CN1c2ccc(F)cc2C(=O)N2CCc3c([nH]c4ccc(OC(=O)CCSSCCC(=O)Oc5ccc6[nH]c7c(c6c5)CCN5C(=O)c6cc(F)ccc6N(C)C75)cc34)C21` (configuration not stated)?
A: IC50 at 72 h [1]: 130 nM; IC50 [2]: 610 nM; IC50 [3]: 410 nM; IC50 [5]: 170 nM

Q: What does the source list for `CN1c2ccc(F)cc2C(=O)N2CCc3c([nH]c4ccc(OC(=O)CCCC(=O)Oc5ccc6[nH]c7c(c6c5)CCN5C(=O)c6cc(F)ccc6N(C)C75)cc34)C21` (configuration not stated)?
A: Activity [6]: 54.32%; Activity [7]: Active; Activity [8]: 58.73%; Activity [9]: Active; Activity [10]: 0%; Activity [11]: Dde; Activity [12]: Active; Activity [13]: 47.78%; Activity [14]: Active; Activity [15]: Active; Activity [16]: 42.61%; Activity [17]: 34.77%; inhibition [18]: Active; inhibition [19]: Active; Activity [20]: 0%; Activity [21]: 30.43%; Activity [22]: 59.8%; IC50 at 72 h [1]: 580 nM; Activity [23]: 26.96%; IC50 [2]: 730 nM; IC50 [3]: 200 nM; Activity [24]: Active; Activity [25]: 75.11%; Activity [26]: 65.23%; Activity [27]: 40.2%; Activity [28]: Active; MIC [29]: 0.01 µM (≈ 7.71 ng/mL); inhibition ([29]; DDE = dose-dependent effect): Dde; IC50 [5]: 32 nM; Activity [30]: Active

Q: Which IC50 at 72 h [1] does the source give for `CC[C@@]1(O)C(=O)OCc2c1cc1n(c2=O)Cc2cc3ccccc3nc2-1` [CAMPTOTHECIN] here?
A: Its IC50 at 72 h is 12 nM.

Q: What about the IC50 [2] of the same compound?
A: Its IC50 is 74 nM.

Q: And the IC50 [3]?
A: The IC50 was 21 nM.

Q: What about the IC50 [5] of the same compound?
A: Its IC50 is 40 nM.

— ChEMBL document CHEMBL5143702, “Discovery of novel bis-evodiamine derivatives with potent antitumor activity” (Bioorg Med Chem, 2022)
